Results from patent US20120016009A1, “Optimized Methods For Delivery Of DSRNA Targeting The PCSK9 Gene” (priority 2008, published 2012).
In the oligonucleotide strings, read from the 5' end, every base follows the letter of its sugar. An asterisk marks phosphorothioate; unmarked linkages are phosphodiester. Other units and linkages are bracketed, terminal groups are in braces. A string of capitals states the bases alone. [Ab] = 3'-terminal abasic nucleotide; e = 2'-O-(2-methoxyethyl) (MOE); d = 2'-deoxy (DNA); m = 2'-O-methyl; r = 2'-OH (RNA); {P} = phosphate; f = 2'-fluoro

What was measured:
PCSK9 mRNA [1] = test: PCSK9 silencing in primary cynomolgus monkey hepatocytes (dilution series from 30 nM, PCSK9/GAPDH mRNA); assay type: cell-based; details: primary monkey hepatocytes
Description: Primary cynomolgus monkey hepatocytes (cryopreserved) were obtained from In vitro Technologies, Inc. (Baltimore, Md., USA, cat No M00305) and cultured in InVitroGRO CP Medium (cat No Z99029) at 37° C. in an atmosphere with 5% CO2 in a humidified incubator.
For transfection with siRNA, primary cynomolgus monkey cells were seeded on Collagen coated plates (Fisher Scientific, cat. No. 08-774-5) at a density of 3.5×10^4 cells/well in 96-well plates and transfected directly. Transfection of siRNA (eight 2-fold dilution series starting from 30 nM) in duplicates was carried out with lipofectamine 2000 (Invitrogen GmbH, Karlsruhe, Germany, cat. No. 11668-019) as described by the manufacturer.
16 hours after transfection medium was changed to fresh InVitroGRO CP Medium with Torpedo Antibiotic Mix (In vitro Technologies, Inc, cat. No Z99000) added.
24 hours after medium change primary cynomolgus monkey cells were lysed and PCSK9 mRNA levels were quantified with the Quantigene Explore Kit (Genosprectra, Dumbarton Circle Fremont, USA, cat. No. QG-000-02) according to the protocol. PCSK9 mRNA levels were normalized to GAPDH mRNA. Normalized PCSK9/GAPDH ratios were then compared to PCSK9/GAPDH ratio of lipofectamine 2000 only control.

PCSK9 mRNA [2] = test: In vitro screening of modified dsRNAs targeted to PCSK9 (Table 2b; cell type not given); assay type: cell-based; details: for Remaining mRNA in % of controls at siRNA conc. of 30 nM: 30 nM siRNA
How it was run: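 siRNA at 30 nM (single-dose screen) was transfected with lipofectamine 2000 into cells seeded at 2.0×10^4/well. After 24 h, cells were lysed and PCSK9 mRNA measured by Quantigene, normalized to GAPDH (n=8). Values are % remaining PCSK9 mRNA relative to cells given an unrelated control siRNA.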

Row | Substance | Remaining mRNA in % of controls at siRNA conc. of 30 nM (PCSK9 mRNA [2]) | further results
1 | AD-10797: modified dsRNA, SEQ ID NO:1529/1530; more modified version of AD-9318 (chain 1 mUmCrAmUrArGrGmCmCmUrGrGrArGmUmUmUrAmUdT*dT; chain 2 rArUrArArArCrUrCrCrArGrGrCrCrUrArUrGrAdT*dT) |  | activity in vitro in primary monkey hepatocytes (PCSK9 mRNA [1]): active in vitro
2 | AD-10795: modified dsRNA, SEQ ID NO:1527/1528; more modified version of AD-9318 (chain 1 mUmCrAmUrArGrGmCmCmUrGrGrArGmUmUmUrAmUdT*dT; chain 2 rAmUrArArArCrUmCmCrArGrGmCrCmUrAmUrGrAdT*dT) |  | activity in vitro in primary monkey hepatocytes (PCSK9 mRNA [1]): active in vitro
3 | AD-10794: modified dsRNA, SEQ ID NO:1525/1526; more modified version of AD-9318 (chain 1 mUmCrAmUrArGrGmCmCmUrGrGrArGmUmUmUrAmUdT*dT; chain 2 rAmUrArArArCrUrCmCrArGrGrCrCmUrArUrGrAdT*dT) |  | activity in vitro in primary monkey hepatocytes (PCSK9 mRNA [1]): active in vitro
4 | AD-12357: modified dsRNA, SEQ ID NO:1411/1412 (chain 1 GCCUGGAGUUUAUUCGGAA; chain 2 rUrUrCrCrGmAmArUrAmAmArCrUrCrCrAmGmGmC; chain 1: sugars from the 5' end rererererererererer, all phosphodiester, methylation of C and T or U not given here) | 56% | 
5 | AD-12360: modified dsRNA, SEQ ID NO:1417/1418 (chain 1 GCCUGGAGUUUAUUCGGAA; chain 2 rUrUrCrCrGrArArUrArArArCrUrCrCrArGrGrC*mC*mU; chain 1: sugars from the 5' end rererererererererer, all phosphodiester, methylation of C and T or U not given here) | 15% | 
6 | AD-12370: modified dsRNA, SEQ ID NO:1437/1438 (chain 1 GCCUGGAGUUUAUUCGGAATT; chain 2 {P}-fUfUfCfCrGrArAfUrArArAfCfUfCfCrArGrGfCdT*dT; chain 1: DNA at T, 2'-MOE at CU, RNA at AG, linkages o19 s1 (s phosphorothioate, o phosphodiester), methylation of C not given here) | 68% | 
7 | AD-12355: modified dsRNA, SEQ ID NO:1407/1408 (chain 1 fGmCfCmUfGmGfAmGfUmUfUmAfUmUfCmGfGmAfA; chain 2 rUrUrCrCrGrArAmUrArArArCrUrCmCrArGrGrCdT*dT) | 9% | 
8 | AD-12052: modified dsRNA, SEQ ID NO:1339/1340 (chain 1 rGmCmCmUrGrGrArGmUmUmUrAmUmUmCrGrGrArArArAdTdT[Ab]; chain 2 rUrUrUrUrCrCrGrArArUrArArArCrUrCrCrArGrGrCdTdT[Ab]) | 81% | 
9 | AD-12341: modified dsRNA, SEQ ID NO:1381/1382 (chain 1 fGmCfCmUfGmGfAmGfUmUfUmAfUmUfCmGfGmAfAdT*dT; chain 2 {P}-mUfUmCfCmGfAmAfUmAfAmAfCmUfCmCfAmGfGmCdT*dT) | 12% | 
10 | AD-12377: modified dsRNA, SEQ ID NO:1449/1450 (chain 1 rGfCfCfUrGrGrArGfUfUfUrAfUfUfCrGrGrArAdT*dT; chain 2 mUrUmCrCrGrArAmUrArArArCrUmCmCrArGrGrCdT*dT) | 88% | 
11 | AD-12047: modified dsRNA, SEQ ID NO:1329/1330 (chain 1 rGmCmCmUrGrGrArGmUmUmUrAmUmUmCrGrGrArArA; chain 2 rUrUrUrCrCrGrArArUrArArArCrUrCrCrArGrGrC*mC*mU) | 17% | 
12 | AD-12053: modified dsRNA, SEQ ID NO:1341/1342 (chain 1 rGmCmCmUrGrGrArGmUmUmUrAmUmUmCrGrGrArArArArGdTdT[Ab]; chain 2 rCrUrUrUrUrCrCrGrArArUrArArArCrUrCrCrArGrGrCdTdT[Ab]) | 46% | 
13 | AD-12051: modified dsRNA, SEQ ID NO:1337/1338 (chain 1 rGmCmCmUrGrGrArGmUmUmUrAmUmUmCrGrGrArArAdTdT[Ab]; chain 2 rUrUrUrCrCrGrArAmUrArArArCrUrCrCrArGrGrCdTdT[Ab]) | 31% | 
14 | AD-12351: modified dsRNA, SEQ ID NO:1401/1402 (chain 1 fGmCfCmUfGmGfAmGfUmUfUmAfUmUfCmGfGmAfA; chain 2 {P}-mUfUmCfCmGfAmAfUmAfAmAfCmUfCmCfAmGfGmC*fC*mU) | 11% | 
15 | AD-12064: modified dsRNA, SEQ ID NO:1363/1364 (chain 1 GCCUGGNAGUUUAUUCGGAATT; chain 2 rUrUrCrCrGrArAmUrArArArCrUrCmCrArGrGrCdT*dT; chain 1: chemistry not given here; sense strand contains an undefined nucleotide n) | 15% | 
16 | AD-12362: modified dsRNA, SEQ ID NO:1421/1422 (chain 1 GCCUGGAGUUUAUUCGGAA; chain 2 mUrUmCrCrGrArAmUrArArArCrUmCmCrArGrGrCdT*dT; chain 1: sugars from the 5' end rererererererererer, all phosphodiester, methylation of C and T or U not given here) | 51% | 
17 | AD-12061: modified dsRNA, SEQ ID NO:1357/1358 (chain 1 GCCUGGNAGUUUAUUCGGAATT; chain 2 rUrUrCrCrGmAmArUrAmAmArCrUrCrCrAmGmGmCdT*dT; chain 1: chemistry not given here; sense strand contains an undefined nucleotide n) | 7% | 
18 | AD-12383: modified dsRNA, SEQ ID NO:1461/1462 (chain 1 rGrCrCrUrGrGrArGrUrUrUrArUrUrCrGrGrArAdT*dT; chain 2 {P}-fUfUfCfCrGrArAfUrArArAfCfUfCfCrArGrGfCdT*dT) | 7% | 
19 | AD-12381: modified dsRNA, SEQ ID NO:1457/1458 (chain 1 rGfCfCfUrGrGrArGfUfUfUrAfUfUfCrGrGrArAdT*dT; chain 2 {P}-mUfUmCfCmGfAmAfUmAfAmAfCmUfCmCfAmGfGmCdT*dT) | 10% | 
20 | AD-12388: modified dsRNA, SEQ ID NO:1471/1472 (chain 1 rGfCfCfUrGrGrArGrGfUfUfUrAfUfUfCrGrGrArA; chain 2 {P}-mUfUmCfCmGfAmAfUmAfAmAfCmUfCmCfAmGfGmC) | 19% | 
21 | AD-12054: modified dsRNA, SEQ ID NO:1343/1344 (chain 1 rGrCrCrUrGrGrArGrUrUrUrArUrUrCrGrGrArAdT*dT; chain 2 rUrUrCrCrGrArArUrArArArCrUrCrCrArGrGrC*mC*mU) | 8% | 
22 | AD-12062: modified dsRNA, SEQ ID NO:1359/1360 (chain 1 rGmCrCmUrGmGrAmGrUmUrUmArUmUrCmGrGmArAdTdT[Ab]; chain 2 rUrUrCrCrGmAmArUrAmAmArCrUrCrCrAmGmGmCdTdT[Ab]) | 10% | 
23 | AD-3511: a derivative of AD-10792; sense SEQ ID NO: 1521, antisense SEQ ID NO: 1522 (sense rGmCmCmUrGrGrArGmUmUmUrAmUmUmCrGrGrArAdT*dT; antisense {P}-mUrUrCrCrGrArAmUrArArArCrUrCmCrArGrGrCdT*dT; further chemistry not fully specified) |  | IC50 (PCSK9 mRNA [2]; data not shown, test system not given): 70 to 200 pM
24 | AD-12391: modified dsRNA, SEQ ID NO:1477/1478 (chain 1 rGfCfCfUrGrGrArGrGfUfUfUrAfUfUfCrGrGrArA; chain 2 rUrUrCrCrGmAmArUrAmAmArCrUrCrCrAmGmGmC) | 21% | 
25 | AD-12058: modified dsRNA, SEQ ID NO:1351/1352 (chain 1 rGmCrCmUrGmGrAmGrUmUrUmArUmUrCmGrGmArA; chain 2 rUrUrCrCrGrArAmUrArArArCrUrCmCrArGrGrCdT*dT) | 9% | 
26 | AD-12352: modified dsRNA, SEQ ID NO:1403/1404 (chain 1 fGmCfCmUfGmGfAmGfUmUfUmAfUmUfCmGfGmAfA; chain 2 rUrUrCrCrGmAmArUrAmAmArCrUrCrCrAmGmGmC*mC*mU) | 11% | 
27 | AD-12060: modified dsRNA, SEQ ID NO:1355/1356 (chain 1 rGmCrCmUrGmGrAmGrUmUrUmArUmUrCmGrGmArA; chain 2 rUrUrCrCrGmAmArUrAmAmArCrUrCrCrAmGmGmC) | 10% | 
